Measurements reported in patent US20240390295A1, “METHODS FOR TREATING DEPRESSION” (JANSSEN PHARMACEUTICA NV, priority 2020, published 2024).

Test system: adult patients (aged 18-64 years) with TRD
Assay: Clinician-reported adverse events: incidence and recurrence by Week 1/Week 4 frequency, pooled studies 1 and 2 (ESK + OAD)
Format: in vivo, human
Text: Data were pooled from adult patients (aged 18-64 years) with TRD. Patients had recurrent or single-episode (>2 years) MDD (DSM-5), a Clinician-Rated Inventory of Depressive Symptomatology score of >3 and a total Montgomery-Åsberg Depression Rating Scale (MADRS) score of >2. At screening, depressive symptoms had been non-responsive to adequate trials of ≥1 and ≤5 commercially available OAD in the current depressive episode. Non response was further confirmed by a prospective trial of a different OAD lasting ≥4 weeks and during the screening phase.
In brief, study 1 was a double-blind, placebo-controlled relapse prevention trial comparing the efficacy of ESK versus placebo nasal spray, both in conjunction with a Food and Drug Administration (FDA)-approved OAD, in delaying relapse of depressive symptoms in patients with TRD who were either in stable remission or stable response after four months' treatment with ESK in conjunction with a FDA-approved OAD. Study 2 was an open-label, multicenter study that assessed the long-term safety and efficacy of ESK in conjunction with an FDA-approved OAD in patients with TRD.
The analysis was limited to the two doses of ESK (56 mg and 84 mg) approved for use by the FDA for patients with TRD. Patients received ESK (56 or 84 mg) in conjunction with an OAD twice weekly during the induction phase (Weeks 1-4); once weekly during Weeks 5-8 of the optimization phase: either once weekly or every other week during the remainder of the 12-week optimization phase and the maintenance phase (individualized according to the severity of depressive symptoms [MADRS total score≤/>12] and tolerability).
Patients were monitored for >90 minutes after ESK administration at each treatment session, after which time they could leave the clinical site at the clinician's discretion. AEs were monitored and reported, and safety assessments, including clinical laboratory tests and physical examinations, were conducted throughout the study. Clinician-reported AEs were categorized as mild, moderate, or severe based on clinical judgement (Table 1).
This analysis included any treatment sessions in which patients received ESK (either open-label or blinded). The occurrence and severity of AEs were assessed within the following timeframes: Month 1 (Week 1 and Weeks 2-4), Month 2 (Weeks 5-8), Months 3-6 and Months 6-12. Severity of clinician-reported AEs were scored as 0 (no AE), 1 (mild), 2 (moderate), and 3 (severe). To examine AEs in individual patients over time, only patients who received at least one ESK dose in the following period were included in the analyses of each respective period. Thus, patient data were retained in (i) Week 1 if the patient received ≥1 ESK dose in Weeks 2-4, (ii) Weeks 2-4 if the patient received ≥1 ESK dose in Weeks 5-8, (iii) Weeks 5-8 if the patient received ≥1 ESK dose in Months 3-6, and (iv) Months 3-6 if the patient received ≥1 ESK dose in Months 6-12.
The five most commonly reported treatment-emergent events occurring with ESK plus OAD therapy (dissociation, dizziness, nausea, sedation, and vertigo) were evaluated, each of which has an incidence ≥5% and at least a 2-fold greater incidence than with placebo plus an OAD. 14 Increases in BP were also examined.
Week 1 and Week 4 were set a priori as index weeks because they are the beginning and end of the induction period. Frequencies and maximum-reported severities of AEs reported during these index weeks served as stratifying variables by which to examine recurrence and severities of AE recurrences in future timeframes.

[1] = Months 3-6, overall rate for timeframe
[2] = Months 6-12, AE twice in Week 1
[3] = Months 6-12, overall rate for timeframe
[4] = Week 1, overall rate for timeframe

CN[C@]1(c2ccccc2Cl)CCCCC1=O [esketamine, (S)-2-(2-chlorophenyl)-2-(methylamino)cyclohexanone] was tested, and the “vomiting during later periods” value (8 participants who had vomiting twice during week 1) was “none experienced vomiting during later periods”, the “participants experiencing an AE after any subsequent treatment session” value (AE not reported in week 1) was less than 10% and the Clinician-reported dissociation (Months 3-6, AE once in Week 1) was 26.2%. For the same molecule, the “Clinician-reported increased blood pressure” value (Months 3-6, AE once in Week 1) was 36.4%, the Clinician-reported sedation (Months 3-6, AE once in Week 1) was 0% and the Dizziness (Months 3-6, AE once in Week 1) was 31.2%. It also gave a Nausea (Months 3-6, AE once in Week 1) of 20.8%, a Vertigo (Months 3-6, AE once in Week 1) of 28.6% and a Clinician-reported dissociation (Months 3-6, AE twice in Week 1) of 61.1%. For the same molecule, the “Clinician-reported increased blood pressure” value (Months 3-6, AE twice in Week 1) was 40.0%, the Clinician-reported sedation (Months 3-6, AE twice in Week 1) was 36.4% and the Dizziness (Months 3-6, AE twice in Week 1) was 53.0%. For the same molecule, the Nausea (Months 3-6, AE twice in Week 1) was 33.3%, the Vertigo (Months 3-6, AE twice in Week 1) was 59.5% and the Clinician-reported dissociation (Months 3-6, No AE in Week 1) was 7.6%. The “Clinician-reported increased blood pressure” value (Months 3-6, No AE in Week 1) was 3.0%, the Clinician-reported sedation (Months 3-6, No AE in Week 1) was 3.0% and the Dizziness (Months 3-6, No AE in Week 1) was 7.5%. For the same molecule, the Nausea (Months 3-6, No AE in Week 1) was 4.5%, the Vertigo (Months 3-6, No AE in Week 1) was 3.4% and the Anxiety (Months 3-6, None in Week 1) was 1.2%. For the same molecule, the “Feeling Drunk” value (Months 3-6, None in Week 1) was 0.2%, the Hypoesthesia (Months 3-6, None in Week 1) was 2.5% and the Lethargy (Months 3-6, None in Week 1) was 0.2%. The Vomiting (Months 3-6, None in Week 1) was 1.9%, the Anxiety (Months 3-6, Once in Week 1) was 10.0% and the “Feeling Drunk” value (Months 3-6, Once in Week 1) was 16.7%. The Hypoesthesia (Months 3-6, Once in Week 1) was 20.7%, the Lethargy (Months 3-6, Once in Week 1) was 40.0% and the Vomiting (Months 3-6, Once in Week 1) was 21.1%. The Anxiety (Months 3-6, Overall) was 1.5%, the “Feeling Drunk” value (Months 3-6, Overall) was 1.5% and the Hypoesthesia (Months 3-6, Overall) was 5.2%. The Lethargy (Months 3-6, Overall) was 0.5%, the Vomiting (Months 3-6, Overall) was 2.5% and the Anxiety (Months 3-6, Twice in Week 1) was 50.0%. The “Feeling Drunk” value (Months 3-6, Twice in Week 1) was 100.0%, the Hypoesthesia (Months 3-6, Twice in Week 1) was 73.3% and the Lethargy (Months 3-6, Twice in Week 1) was 0%. For the same molecule, the Vomiting (Months 3-6, Twice in Week 1) was 0%, the Clinician-reported dissociation [1] was 14.4% and the “Clinician-reported increased blood pressure” value [1] was 4.2%. The Clinician-reported sedation [1] was 3.5%, the Dizziness [1] was 15.6% and the Nausea [1] was 7.2%. The Vertigo [1] was 8.2%, the Clinician-reported dissociation (Months 6-12, AE once in Week 1) was 18.5% and the “Clinician-reported increased blood pressure” value (Months 6-12, AE once in Week 1) was 9.1%. The Clinician-reported sedation (Months 6-12, AE once in Week 1) was 0%, the Dizziness (Months 6-12, AE once in Week 1) was 20.8% and the Nausea (Months 6-12, AE once in Week 1) was 18.2%. For the same molecule, the Vertigo (Months 6-12, AE once in Week 1) was 23.8%, the Clinician-reported dissociation [2] was 33.3% and the “Clinician-reported increased blood pressure” value [2] was 20.0%. The Clinician-reported sedation [2] was 45.5%, the Dizziness [2] was 21.2% and the Nausea [2] was 8.3%. For the same molecule, the Vertigo [2] was 38.1%, the Clinician-reported dissociation (Months 6-12, No AE in Week 1) was 4.6% and the “Clinician-reported increased blood pressure” value (Months 6-12, No AE in Week 1) was 1.7%. It also gave a Clinician-reported sedation (Months 6-12, No AE in Week 1) of 1.7%, a Dizziness (Months 6-12, No AE in Week 1) of 4.0% and a Nausea (Months 6-12, No AE in Week 1) of 4.9%. For the same molecule, the Vertigo (Months 6-12, No AE in Week 1) was 1.7%, the Anxiety (Months 6-12, None in Week 1) was 2.1% and the “Feeling Drunk” value (Months 6-12, None in Week 1) was 0.2%. For the same molecule, the Hypoesthesia (Months 6-12, None in Week 1) was 1.6%, the Lethargy (Months 6-12, None in Week 1) was 1.6% and the Vomiting (Months 6-12, None in Week 1) was 1.9%. The Anxiety (Months 6-12, Once in Week 1) was 0%, the “Feeling Drunk” value (Months 6-12, Once in Week 1) was 33.3% and the Hypoesthesia (Months 6-12, Once in Week 1) was 13.8%. The Lethargy (Months 6-12, Once in Week 1) was 0%, the Vomiting (Months 6-12, Once in Week 1) was 10.5% and the Anxiety (Months 6-12, Overall) was 2.2%. The “Feeling Drunk” value (Months 6-12, Overall) was 1.5%, the Hypoesthesia (Months 6-12, Overall) was 3.2% and the Lethargy (Months 6-12, Overall) was 0.2%. The Vomiting (Months 6-12, Overall) was 2.2%, the Anxiety (Months 6-12, Twice in Week 1) was 50.0% and the “Feeling Drunk” value (Months 6-12, Twice in Week 1) was 85.7%. For the same molecule, the Hypoesthesia (Months 6-12, Twice in Week 1) was 40.0%, the Lethargy (Months 6-12, Twice in Week 1) was 0% and the Vomiting (Months 6-12, Twice in Week 1) was 0%. The Clinician-reported dissociation [3] was 8.8%, the “Clinician-reported increased blood pressure” value [3] was 2.2% and the Clinician-reported sedation [3] was 2.5%. The Dizziness [3] was 8.1%, the Nausea [3] was 6.7% and the Vertigo [3] was 5.0%. The Clinician-reported dissociation [4] was 17.1%, the “Clinician-reported increased blood pressure” value [4] was 4.4% and the Clinician-reported sedation [4] was 3.9%. The Dizziness [4] was 21.1%, the Nausea [4] was 14.3% and the Vertigo [4] was 12.4%.
